Measurements published in patent US20090233930A9, “Novel 2-Amino-Imidazole-4-One Compounds and Their Use in the Manufacture of a Medicament to Be Used in the Treatment of Cognitive Impairment, Alzheimer's Disease, Neurodegeneration and Dementia” (ASTRAZENECA AB, priority 2005, published 2009).
Structures can show the parent of a compound that is named as a salt.

Target: T1, human β-Secretase (Homo sapiens, UniProt P56817)
T1 construct: The soluble part of the human β-Secretase (AA 1-AA 460) was cloned; made in house
Assay: TR-FRET assay
Type: biochemical
Settings: sBACE truncated form, substrate (Europium)CEVNLDAEFK(Qsy7) 100 nM, pH 4.5
Experimental: The enzyme used in the IGEN Cleavage-, Fluorescent-, TR-FRET- and the BiaCore assay is described as follows:
The soluble part of the human β-Secretase (AA 1-AA 460) was cloned into the ASP2-Fc10-1-IRES-GFP-neoK mammalian expression vector. The gene was fused to the Fc domain of IgG1 (affinity tag) and stably cloned into HEK 293 cells. Purified sBACE-Fc is stored in Tris buffer, pH 9.2 and has a purity of 95%.
Dilute the enzyme (truncated form) to 6 μg/mL (stock 1.3 mg/mL) and the substrate (Europium)CEVNLDAEFK(Qsy7) to 200 nM (stock 60 μM) in reaction buffer (NaAcetate, chaps, triton x-100, EDTA pH4.5). The Biomek FX is used for all liquid handling and the enzyme and substrate solutions are kept on ice until they are placed in Biomek FX. Enzyme (9 μl) is added to the plate then 1 μl of compound in dimethylsulphoxide is added, mixed and pre-incubated for 10 minutes. Substrate (10 μl) is then added, mixed and the reaction proceeds in the dark for 15 minutes at room temperature. The reaction is stopped with the addition of Stop solution (7 μl, NaAcetate pH 9). The fluorescence of the product is measured on a Victor II plate reader with an excitation wavelength of 340 nm and an emission wavelength of 615 nm. The assay is done in a Costar 384 well round bottom, low volume, non-binding surface (Corning #3676). […]

T1 sequence (P56817 22-460): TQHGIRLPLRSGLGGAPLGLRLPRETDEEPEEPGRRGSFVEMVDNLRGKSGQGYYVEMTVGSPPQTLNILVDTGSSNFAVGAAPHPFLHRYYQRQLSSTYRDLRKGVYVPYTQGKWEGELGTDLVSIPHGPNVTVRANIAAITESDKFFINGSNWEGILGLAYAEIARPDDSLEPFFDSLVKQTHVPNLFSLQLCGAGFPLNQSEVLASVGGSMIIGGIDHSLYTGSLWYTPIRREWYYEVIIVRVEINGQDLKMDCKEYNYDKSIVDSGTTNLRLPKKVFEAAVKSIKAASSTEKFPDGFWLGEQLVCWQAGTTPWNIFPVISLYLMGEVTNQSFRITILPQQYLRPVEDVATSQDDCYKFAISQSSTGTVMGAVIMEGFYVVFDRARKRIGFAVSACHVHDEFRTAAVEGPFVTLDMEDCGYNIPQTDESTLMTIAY

| IC50 [nM] | Structure (SMILES) |
| --- | --- |
| 743 | COc1ccc(OS(=O)(=O)C(F)(F)F)c(-c2cccc(C3(c4ccccc4)N=C(N)N(C)C3=O)c2)c1 (centres unmarked) [Example 26, 3′-(2-Amino-1-methyl-5-oxo-4-phenyl-4,5-dihydro-1H-imidazol-4-yl)-5-methoxybiphenyl-2-yl trifluoromethanesulfonate hydrochloride] |
| 258 | COc1cccc(-c2cccc(C3(c4cccc(OS(=O)(=O)C(F)(F)F)c4)N=C(N)N(C)C3=O)c2)c1 (centres unmarked) [Example 45, 3-[2-Amino-4-(3′-methoxybiphenyl-3-yl)-1-methyl-5-oxo-4,5-dihydro-1H-imidazol-4-yl]phenyl trifluoromethanesulfonate hydrochloride] |
